Results from patent publication US20260308177A1, “THIAZOLOPYRIDIN-7(4H)-ONE WRN INHIBITORS” (NIMBUS WADJET, INC., priority 2023, published 2026).
Like-named read-outs stand apart in the source and are kept apart here.

Experiments:
[1] = target: T1, human Werner helicase (WRN-BV08, amino acids 517-1235, L1074F) (Homo sapiens, UniProt Q14191, L1074F); assay: WRN (BV08) ADP-Glo Assay (ATPase inhibition); format: biochemical
T1 construct: TEV-cleavable 8×His tag (C, cleaved yes); made in house; host or cells: Sf9 insect cells (baculovirus)
From the text: Example 2: WRN (BV08) ADP-Glo Assay Protocol
Bovine skin gelatin (BSG), dimethyl sulfoxide (DMSO), Pluronic F-127 and tris(2-carboxyethyl)phosphine hydrochloride solution (TCEP) were purchased from Sigma-Aldrich (St. Louis, MO) at the highest level of purity possible. Bicine buffer solution was purchased from Alfa Aesar (Tewksbury, MA) and compound NSC-617145 was purchased from Tocris (Minneapolis, MN). DNA duplex was synthesized at BGI (Shenzhen, China) and was composed of strand 1 with the sequence 5′-[…]-3′ (SEQ ID NO.: 1) and strand 2 with the sequence 5′-[…]-3′ (SEQ ID NO.: 2). DNA strands were annealed by heating to 95° C. for 5 minutes followed by slow cooling to room temperature. Compounds in 100% DMSO (0.1 μl) were spotted into a 384-well white polystyrene Optiplate-384 (Perkin Elmer; Waltham, MA) assay plate using a LabCyte Echo 550 (Agilent; Santa Clara, CA). DMSO (0.1 μl) was added to columns 12, rows A-H and column 24, rows I-P for the maximum signal control. Compound NSC-617145 (0.1 μl) was added to columns 12, rows I-P and 24, rows A-H for the minimum signal control (100% inhibition). Compounds/DMSO were preincubated for 15 minutes at 25° C. with 5 μl 2×WRN (BV08), prepared as described below, in assay buffer containing 20 mM Bicine (pH=7.5), 1 mM MgCl2, 10 mM KCl, 0.1% Pluronic F-127, 0.005% BSG, 1 mM TCEP. The reaction was initiated by the addition of 5 μl 2× substrate mixture in assay buffer and incubated for 60 minutes at 25° C. The final concentrations of the assay components were 0.15 nM WRN, 5 μM ATP, and 0.1 nM DNA duplex. The final DMSO concentration was 1% and the reference compound concentration (NSC-617145) used for the minimal signal control was 20 μM. The reaction was stopped by the addition of the ADP-Glo Kit components (Promega; Madison, WI) as directed and the relative luminescence units (RLU) were read on an Envision 2104 (Perkin Elmer; Waltham, MA). % inhibition calculation:
Where RLU=relative luminescence units, sample=signal in sample well, and MIN and MAX are the respective minimum and maximum signal controls.
Four-parameter IC50 fit equation:
Where top and bottom are normally allowed to float but may be fixed at 100 or 0 respectively in a 3-parameter fit. Y is the % inhibition and X is the compound concentration.
Molecular Biology and virus production. The DNA encoding human Werner helicase (Uniprot Q14191, amino acids 517-1235 with L1074F point mutation) was generated with codon-optimization for E. coli expression and subcloned into the pFastBac vector with a TEV cleavable 8×His tag (WRN—BV08). The baculovirus from the expression plasmid WRN—BV08 was generated from transfection and amplification following the manufacturer's instructions.
Sf9 cells grown in SF900II media were infected with 1:200 WRN—BV08 P2 virus and incubated for protein expression for 72 h at 27° C. The WRN protein was purified using the following protocol. The cell pellets were thawed and resuspended in buffer A (50 mM Tris, pH 7.5, 500 mM NaCl, 1 mM TCEP, 10% Glycerol) supplemented with 0.5% CHAPS, 1 mM [COMPOUND LEFT OUT], 1 μg/ml Leupeptin, 1 μg/ml Pepstatin, and the Pierce Universal Nuclease and cocktail tablet. Cleared lysates were loaded onto a Ni Sepharose™ excel column and washed with buffer A and bound protein was eluted with buffer A supplemented with 300 mM imidazole. The eluted protein was dialyzed against buffer A and digested by His-tagged TEV (1:5 ratio) overnight at 4° C. ZnCl2 was added into the sample at final 15 μM before loading onto a second Ni Sepharose™ excel column. Untagged WRN protein was eluted from the column with buffer A supplemented with 20 mM imidazole, dialyzed overnight into buffer B (50 mM Tris, pH 7.5, 1 mM TCEP, 10% Glycerol) supplemented with 150 mM NaCl and loaded onto a Heparin column. Proteins were eluted with a step gradient of buffer B supplemented with 150 mM, 200 mM, 300 mM and 500 mM NaCl. […]

p21 in HCT116 cells = target: T2, p21 in HCT116 cells (Homo sapiens, UniProt Q14191); assay: p21 induction in HCT116 cells; format: cell-based; details: 24 h, p21/GAPDH signal ratio, % activation vs internal reference WRN inhibitor, read-out: P21_EC50
T2 construct: p21 induction in-cell western, 24 h
Experimental: (§1) Example 3: Method for Determining Effect on p21 Induction in Cells
(§2) The colon carcinoma cell line HCT116 was obtained from ATCC and cultured in growth medium consisting of Mccoy's 5A Medium (Gibco 16600108) supplemented with 10% FBS (Transgene FS201-02) and 100 units/mL penicillin-streptomycin (Gibco 15140122) and maintained at 37° C. under 5% CO2. On the day of seeding, 2,000 cells in 30 μL of culture media were plated per well to Poly-D-Lysine 384 Well Black Clear Plates (Biocoat 356663) and incubated overnight at 37° C. under 5% CO2. The following day, compounds were serially diluted in DMSO for a total of 11 test concentrations. The typical starting concentration of cpds was 10 uM with 2-fold dilutions. Next, 150 nL of diluted compound was added in duplicate to the assay plate, using an Echo 655 (Labcyte). The plate was centrifuged at 500 RPM for 1 min and then incubated at 37° C. under 5% CO2 for 24 h. After 24 h, medium was removed, and cells were fixed by adding 40 μL of 4% paraformaldehyde solution to each well and incubated for 20 min at room temperature. The plate was then washed 4 times with 100 μL per well of wash buffer (PBS with 0.1% Tween-20) using a microplate washer. Next, 30 μL of ice-cold methanol was added to each well and the plate was incubated at −20° C. for 10 min. The plate was washed 4 times with 100 µL per well of wash buffer by a microplate washer, then 30 μL per well of blocking buffer ((Intercept PBS blocking buffer (LI-COR 927-70001) with 0.05% Tween-20)) was added and the plate was incubated at room temperature with shaking for 2 h. Next, to each test well, 20 μL of primary antibody solution ((p21 Waf1/CIP (12D1) Rabbit mAb (Cell Signaling Technologies 2947) diluted 1:1000 and GAPDH (D4C6R) Mouse mAb (Cell Signaling Technologies 97166) diluted 1:2000 in blocking buffer)) was added and the plate was placed at 4° C., overnight. The following day, the plate was washed 5 times with 100 μL per well of wash buffer using a microplate washer for 5 min. 20 μL per well of secondary antibody ((IRDye 680CW Goat anti-Mouse IgG (H+L) (LI-COR 926-68070) diluted 1: 2000 in Blocking Buffer and IRDye 800CW Goat anti-Rabbit IgG (H+L) (LI-COR 926-32211) diluted 1: 2000 in Blocking Buffer)) was then added and the plate was stored for 2 h in the dark at room temperature with shaking. The plate was then washed 4 times with 100 μL per well of wash buffer again using a microplate washer. Finally, the p21 signal and the GAPDH signal were quantified using a LI-COR Odyssey CLx Imager machine reading at 800 nm and 700 nm, respectively. Each plate contained DMSO control (low control) and an internal reference WRN inhibitor (high control) respectively. For quantitation, the 800 nm/700 nm ratio was calculated for each well to give fold p21 induction and then percent activation for each compound well was calculated as follows ((100×(ratio cpd well-ratio low control)/(ratio high control−ratio low control)). EC50 values for each compound was generated after non-linear regression curve fitting using commercially available software.

[2] = p21 induction in HCT116 cells; format: cell-based, human; details: read-out: P21_EC50, 24 h, p21/GAPDH signal ratio, % activation vs internal reference WRN inhibitor
Experimental: as §1, §2

[3] = 0.15 nM WRN, 5 μM ATP, 0.1 nM DNA duplex, pH 7.5, 15 min preincubation, 60 min at 25° C., 1% DMSO, read-out: ADP-Glo_hWRN_IC50

T2 sequence (Q14191 whole entry): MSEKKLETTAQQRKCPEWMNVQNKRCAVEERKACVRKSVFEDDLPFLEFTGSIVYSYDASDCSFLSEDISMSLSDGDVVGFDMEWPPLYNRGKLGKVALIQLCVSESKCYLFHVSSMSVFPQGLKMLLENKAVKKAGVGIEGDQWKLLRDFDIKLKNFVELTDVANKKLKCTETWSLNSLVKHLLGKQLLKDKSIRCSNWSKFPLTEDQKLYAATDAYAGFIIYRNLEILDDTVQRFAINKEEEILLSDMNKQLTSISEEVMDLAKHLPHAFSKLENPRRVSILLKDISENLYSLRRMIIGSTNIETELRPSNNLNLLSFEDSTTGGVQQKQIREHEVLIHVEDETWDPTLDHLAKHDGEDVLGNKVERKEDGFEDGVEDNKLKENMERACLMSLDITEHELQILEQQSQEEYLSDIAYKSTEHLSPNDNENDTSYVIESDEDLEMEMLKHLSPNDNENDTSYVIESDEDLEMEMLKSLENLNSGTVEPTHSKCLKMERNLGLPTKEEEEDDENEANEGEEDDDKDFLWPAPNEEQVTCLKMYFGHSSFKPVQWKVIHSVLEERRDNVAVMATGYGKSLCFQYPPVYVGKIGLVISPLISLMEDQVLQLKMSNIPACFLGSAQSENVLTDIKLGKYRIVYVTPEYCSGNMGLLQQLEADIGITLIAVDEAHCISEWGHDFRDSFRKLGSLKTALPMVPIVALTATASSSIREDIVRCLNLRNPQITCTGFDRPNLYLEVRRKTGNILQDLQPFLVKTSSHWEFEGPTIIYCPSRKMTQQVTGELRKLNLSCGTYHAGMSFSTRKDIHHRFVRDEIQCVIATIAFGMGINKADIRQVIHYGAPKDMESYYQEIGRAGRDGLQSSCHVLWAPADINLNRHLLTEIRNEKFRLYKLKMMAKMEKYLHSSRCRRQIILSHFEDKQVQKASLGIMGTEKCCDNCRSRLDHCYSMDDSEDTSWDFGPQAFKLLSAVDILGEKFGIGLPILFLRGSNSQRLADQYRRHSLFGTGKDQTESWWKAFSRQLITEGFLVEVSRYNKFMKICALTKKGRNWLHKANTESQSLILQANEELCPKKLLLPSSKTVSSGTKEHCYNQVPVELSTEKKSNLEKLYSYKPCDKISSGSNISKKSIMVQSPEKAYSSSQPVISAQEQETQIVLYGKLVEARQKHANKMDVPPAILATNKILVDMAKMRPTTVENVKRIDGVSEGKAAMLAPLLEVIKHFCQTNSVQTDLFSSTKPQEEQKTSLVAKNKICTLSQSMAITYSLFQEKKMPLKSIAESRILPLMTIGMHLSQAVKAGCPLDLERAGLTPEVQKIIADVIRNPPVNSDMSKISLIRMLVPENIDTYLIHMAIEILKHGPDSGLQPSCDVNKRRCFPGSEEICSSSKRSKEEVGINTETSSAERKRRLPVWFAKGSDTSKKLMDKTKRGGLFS
T1 sequence (Q14191 with tags, fused parts or gaps L1074F): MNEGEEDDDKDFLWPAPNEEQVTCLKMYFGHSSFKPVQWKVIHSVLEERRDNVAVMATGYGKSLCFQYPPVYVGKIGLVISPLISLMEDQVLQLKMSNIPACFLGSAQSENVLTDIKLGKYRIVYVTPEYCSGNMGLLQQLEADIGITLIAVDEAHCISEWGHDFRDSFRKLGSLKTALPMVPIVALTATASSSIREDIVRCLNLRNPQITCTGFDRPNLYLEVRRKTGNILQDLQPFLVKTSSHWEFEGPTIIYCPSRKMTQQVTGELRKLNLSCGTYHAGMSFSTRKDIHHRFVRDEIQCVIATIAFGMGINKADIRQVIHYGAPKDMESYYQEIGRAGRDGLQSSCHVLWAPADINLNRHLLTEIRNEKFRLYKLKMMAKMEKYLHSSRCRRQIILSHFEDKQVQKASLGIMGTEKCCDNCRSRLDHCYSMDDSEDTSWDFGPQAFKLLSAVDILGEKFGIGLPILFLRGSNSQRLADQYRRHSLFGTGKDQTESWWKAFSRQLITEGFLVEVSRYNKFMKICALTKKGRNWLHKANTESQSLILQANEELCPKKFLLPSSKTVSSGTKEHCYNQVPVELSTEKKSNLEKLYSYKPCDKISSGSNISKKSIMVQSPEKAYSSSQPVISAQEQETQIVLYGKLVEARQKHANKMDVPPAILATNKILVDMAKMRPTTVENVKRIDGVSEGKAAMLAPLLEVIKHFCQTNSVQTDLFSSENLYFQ

Structure (SMILES)	IC50 [1, 3]	EC50 (p21 in HCT116 cells)	IC50 [1]	EC50 [2]
CCc1c(N2CCN(C(=O)c3ncnc(C)c3O)CC2)c(=O)c2nc(N3CCCC3)sc2n1CC(=O)Nc1ccc(C(F)(F)F)cc1Cl [Compound I-4, N-(2-chloro-4-(trifluoromethyl)phenyl)-2-(5-ethyl-6-(4-(5-hydroxy-6-methylpyrimidine-4-carbonyl)piperazin-1-yl)-7-oxo-2-(pyrrolidin-1-yl)thiazolo[5,4-b]pyridin-4(7H)-yl)acetamide]	5 to 50 nM	2000 to 5000 nM	–	–
CCc1c(N2CCN(C(=O)c3ncnc(C)c3O)CC2)c(=O)c2nc(-c3ccnc(OC)c3)sc2n1CC(=O)Nc1ccc(C(F)(F)F)cc1Cl [Compound I-1, N-(2-chloro-4-(trifluoromethyl)phenyl)-2-(5-ethyl-6-(4-(5-hydroxy-6-methylpyrimidine-4-carbonyl)piperazin-1-yl)-2-(2-methoxypyridin-4-yl)-7-oxothiazolo[5,4-b]pyridin-4(7H)-yl)acetamide]	5 to 50 nM	500 to 2000 nM	–	–
CCc1c(N2CCN(C(=O)c3c(O)ccnc3OC)CC2)c(=O)c2nc(-c3ccnc(OC)c3)sc2n1CC(=O)Nc1ccc(C(F)(F)F)cc1Cl [Compound I-5, N-(2-chloro-4-(trifluoromethyl)phenyl)-2-(5-ethyl-6-(4-(4-hydroxy-2-methoxynicotinoyl)piperazin-1-y1)-2-(2-methoxypyridin-4-y1)-7-oxothiazolo[5,4-b]pyridin-4(7H)-y1)acetamide]	5 to 50 nM	500 to 2000 nM	–	–
C=C(C)c1nc2c(=O)c(N3CCN(C(=O)c4ncnc(C)c4O)CC3)c(CC)n(CC(=O)Nc3ccc(C(F)(F)F)cc3Cl)c2s1 [Compound I-6, N-(2-chloro-4-(trifluoromethyl)phenyl)-2-(5-ethyl-6-(4-(5-hydroxy-6-methylpyrimidine-4-carbonyl)piperazin-1-yl)-7-oxo-2-(prop-1-en-2-yl)thiazolo[5,4-b]pyridin-4(7H)-yl)acetamide]	–	–	5 to 50 nM	500 to 2000 nM
CCc1c(N2CCN(C(=O)c3ncnc(C)c3O)CC2)c(=O)c2sc(-c3ccnc(OC)c3)nc2n1CC(=O)NC12CC(C(F)(F)F)(C1)C2 [Compound I-8, 2-(5-ethyl-6-(4-(5-hydroxy-6-methylpyrimidine-4-carbonyl)piperazin-1-yl)-2-(2-methoxypyridin-4-y1)-7-oxothiazolo[4,5-b]pyridin-4(7H)-y1)-N-(3-(trifluoromethyl)bicyclo[1.1.1]pentan-1-yl)acetamide]	5 to 50 nM	> 5000 nM	–	–
CCc1c(N2CCN(C(=O)c3ncnc(C)c3O)CC2)c(=O)c2sc(-c3ccnc(OC)c3)nc2n1CC(=O)Nc1ccc(C(F)(F)F)cc1Cl [Compound I-2, N-(2-chloro-4-(trifluoromethyl)phenyl)-2-(5-ethyl-6-(4-(5-hydroxy-6-methylpyrimidine-4-carbonyl)piperazin-1-yl)-2-(2-methoxypyridin-4-y1)-7-oxothiazolo[4,5-b]pyridin-4(7H)-yl)acetamide]	< 5 nM	< 500 nM	–	–
CCc1c(N2CCN(C(=O)c3ncnc(C)c3O)CC2)c(=O)c2nc(C3=CCOCC3)sc2n1CC(=O)Nc1ccc(C(F)(F)F)cc1Cl [Compound I-3, N-(2-chloro-4-(trifluoromethyl)phenyl)-2-(2-(3,6-dihydro-2H-pyran-4-y1)-5-ethyl-6-(4-(5-hydroxy-6-methylpyrimidine-4-carbonyl)piperazin-1-yl)-7-oxothiazolo[5,4-b]pyridin-4(7H)-yl)acetamide]	5 to 50 nM	–	–	–
CCc1c(N2CCN(C(=O)c3ncnc(C)c3O)CC2)c(=O)c2nc(-c3cnn(C)c3)sc2n1CC(=O)Nc1ccc(C(F)(F)F)cc1Cl [Compound I-7, N-(2-chloro-4-(trifluoromethyl)phenyl)-2-(5-ethyl-6-(4-(5-hydroxy-6-methylpyrimidine-4-carbonyl)piperazin-1-y1)-2-(1-methyl-1H-pyrazol-4-y1)-7-oxothiazolo[5,4-b]pyridin-4(7H)-yl)acetamide]	–	> 5000 nM	–	–
CCc1c(N2CCN(C(=O)c3ncnc(C)c3O)CC2)c(=O)c2nc(C3=CCOCC3)sc2n1CC(=O)Nc1ccc(C(F)(F)F)cc1Cl [1-3]	–	2000 to 5000 nM	–	–
CCc1c(N2CCN(C(=O)c3ncnc(C)c3O)CC2)c(=O)c2nc(-c3cnn(C)c3)sc2n1CC(=O)Nc1ccc(C(F)(F)F)cc1Cl [1-7]	5 to 50 nM	–	–	–
